# Assay results taken from ChEMBL document CHEMBL2086329, “Design and synthesis of potent, selective inhibitors of matriptase” (ACS Med Chem Lett, 2012).
# The source made the active and inactive calls. The calls are words filed in the database; no cut-off is given here. Where a SMILES comes first, the peptide text is derived from it. The star is where a group is joined. CH2Cl = ClC*
# How the values were obtained:
# [1] = molecular target: T1, Suppressor of tumorigenicity 14 protein (Homo sapiens, UniProt Q9Y5Y6); experiment: Tight binding inhibition of human matriptase expressed in Drosophila melanogaster S2 cells using Boc-QAR-AMC as substrate incubated for 15 mins prior to substrate addition measured for 30 mins by fluorimetric analysis
# T1 sequence (Q9Y5Y6 whole entry): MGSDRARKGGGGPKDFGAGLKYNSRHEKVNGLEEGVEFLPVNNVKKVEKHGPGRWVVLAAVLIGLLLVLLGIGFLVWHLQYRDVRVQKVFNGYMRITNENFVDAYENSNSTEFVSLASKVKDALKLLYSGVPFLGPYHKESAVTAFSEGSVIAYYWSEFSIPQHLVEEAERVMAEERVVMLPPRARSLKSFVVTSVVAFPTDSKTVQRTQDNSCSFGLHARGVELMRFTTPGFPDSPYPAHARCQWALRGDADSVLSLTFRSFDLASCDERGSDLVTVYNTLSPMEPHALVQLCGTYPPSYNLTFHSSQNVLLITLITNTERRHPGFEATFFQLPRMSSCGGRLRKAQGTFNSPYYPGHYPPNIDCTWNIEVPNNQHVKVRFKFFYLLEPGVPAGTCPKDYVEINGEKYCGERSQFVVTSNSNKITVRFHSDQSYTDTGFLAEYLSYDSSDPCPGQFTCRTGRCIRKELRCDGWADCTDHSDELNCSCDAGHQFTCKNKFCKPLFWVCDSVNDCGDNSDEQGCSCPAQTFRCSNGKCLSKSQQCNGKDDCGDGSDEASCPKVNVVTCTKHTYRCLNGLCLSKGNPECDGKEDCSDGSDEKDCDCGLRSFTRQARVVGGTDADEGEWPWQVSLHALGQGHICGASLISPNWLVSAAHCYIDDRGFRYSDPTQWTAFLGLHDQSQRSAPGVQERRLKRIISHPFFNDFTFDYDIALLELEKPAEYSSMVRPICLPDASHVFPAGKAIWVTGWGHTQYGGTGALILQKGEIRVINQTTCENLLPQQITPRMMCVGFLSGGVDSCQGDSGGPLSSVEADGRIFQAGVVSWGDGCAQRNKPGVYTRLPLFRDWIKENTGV
# [2] = molecular target: T1, Suppressor of tumorigenicity 14 protein; experiment: Mixed inhibition of human matriptase expressed in Drosophila melanogaster S2 cells using Boc-QAR-AMC as substrate by fluorimetric analysis
# [3] = molecular target: T2, Suppressor of tumorigenicity 14 protein (Homo sapiens) (UniProt Q9Y5Y6); experiment: Irreversible inhibition of human matriptase expressed in Drosophila melanogaster S2 cells using Boc-QAR-AMC as substrate incubated for 20 mins prior to substrate addition measured for 75 mins by fluorimetric analysis
# T2 sequence (whole entry): T1 sequence (Q9Y5Y6 whole entry)
# [4] = molecular target: T2, Suppressor of tumorigenicity 14 protein (Homo sapiens); settings: S2, 2.5 nM
# Description: Inhibition of human matriptase expressed in Drosophila melanogaster S2 cells using Boc-QAR-AMC as substrate at 2.5 nM by fluorimetric analysis
# Furin (Homo sapiens) = Furin (Homo sapiens) (UniProt P09958); experiment: Inhibition of human furin expressed in Drosophila melanogaster S2 cells using Boc-RRVR-AMC as substrate at 10 uM
# [5] = molecular target: T3, Transmembrane protease serine 11D (Homo sapiens, UniProt O60235); experiment: Tight binding inhibition of human TMPRSS11D expressed in Drosophila melanogaster S2 cells using Boc-QAR-AMC as substrate incubated for 15 mins prior to substrate addition measured for 30 mins by fluorimetric analysis
# T3 sequence (O60235 whole entry): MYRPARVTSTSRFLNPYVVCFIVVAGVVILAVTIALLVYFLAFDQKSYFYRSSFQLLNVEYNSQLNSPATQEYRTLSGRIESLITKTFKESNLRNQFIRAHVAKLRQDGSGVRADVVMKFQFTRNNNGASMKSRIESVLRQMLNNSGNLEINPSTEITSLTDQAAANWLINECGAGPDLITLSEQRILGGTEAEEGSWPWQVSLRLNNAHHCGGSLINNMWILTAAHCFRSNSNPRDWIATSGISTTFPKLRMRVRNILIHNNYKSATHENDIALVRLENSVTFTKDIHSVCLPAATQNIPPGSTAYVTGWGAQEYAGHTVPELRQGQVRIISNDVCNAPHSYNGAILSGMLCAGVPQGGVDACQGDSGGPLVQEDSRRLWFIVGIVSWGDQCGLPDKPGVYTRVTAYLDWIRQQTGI
# [6] = molecular target: T4, Transmembrane protease serine 6 (Homo sapiens, UniProt Q8IU80); experiment: Tight binding inhibition of human matriptase2 expressed in Drosophila melanogaster S2 cells using Boc-QAR-AMC as substrate incubated for 15 mins prior to substrate addition measured for 30 mins by fluorimetric analysis
# T4 sequence (Q8IU80 whole entry): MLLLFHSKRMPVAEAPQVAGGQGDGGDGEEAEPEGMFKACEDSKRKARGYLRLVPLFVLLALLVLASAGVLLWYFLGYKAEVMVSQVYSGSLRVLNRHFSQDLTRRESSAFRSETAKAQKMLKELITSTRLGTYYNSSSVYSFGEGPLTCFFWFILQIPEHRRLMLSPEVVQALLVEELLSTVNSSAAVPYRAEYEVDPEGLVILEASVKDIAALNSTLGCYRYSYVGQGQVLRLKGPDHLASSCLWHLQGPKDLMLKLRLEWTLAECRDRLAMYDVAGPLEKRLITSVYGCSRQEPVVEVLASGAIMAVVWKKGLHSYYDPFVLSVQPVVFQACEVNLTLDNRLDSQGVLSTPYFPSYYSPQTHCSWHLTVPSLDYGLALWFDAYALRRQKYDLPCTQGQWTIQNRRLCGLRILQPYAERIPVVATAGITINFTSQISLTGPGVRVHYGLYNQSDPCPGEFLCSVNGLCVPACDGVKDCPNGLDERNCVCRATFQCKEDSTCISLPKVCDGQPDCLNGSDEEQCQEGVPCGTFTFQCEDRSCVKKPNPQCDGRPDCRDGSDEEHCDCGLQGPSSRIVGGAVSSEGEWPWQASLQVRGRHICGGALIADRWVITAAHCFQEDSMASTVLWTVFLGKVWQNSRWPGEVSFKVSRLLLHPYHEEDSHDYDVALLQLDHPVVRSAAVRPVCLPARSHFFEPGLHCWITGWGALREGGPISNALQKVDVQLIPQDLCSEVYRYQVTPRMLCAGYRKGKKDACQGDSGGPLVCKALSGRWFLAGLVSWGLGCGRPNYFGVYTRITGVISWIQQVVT
# Trypsin = Trypsin (Homo sapiens, UniProt P07477+P07478+P35030); experiment: Tight binding inhibition of human trypsin expressed in Drosophila melanogaster S2 cells using Boc-QAR-AMC as substrate incubated for 15 mins prior to substrate addition measured for 30 mins by fluorimetric analysis
# Prothrombin = Prothrombin (Homo sapiens, UniProt P00734); experiment: Mixed inhibition of human thrombin expressed in Drosophila melanogaster S2 cells using Boc-QAR-AMC as substrate by fluorimetric analysis
# Sequence of Furin (Homo sapiens) (P09958 whole entry): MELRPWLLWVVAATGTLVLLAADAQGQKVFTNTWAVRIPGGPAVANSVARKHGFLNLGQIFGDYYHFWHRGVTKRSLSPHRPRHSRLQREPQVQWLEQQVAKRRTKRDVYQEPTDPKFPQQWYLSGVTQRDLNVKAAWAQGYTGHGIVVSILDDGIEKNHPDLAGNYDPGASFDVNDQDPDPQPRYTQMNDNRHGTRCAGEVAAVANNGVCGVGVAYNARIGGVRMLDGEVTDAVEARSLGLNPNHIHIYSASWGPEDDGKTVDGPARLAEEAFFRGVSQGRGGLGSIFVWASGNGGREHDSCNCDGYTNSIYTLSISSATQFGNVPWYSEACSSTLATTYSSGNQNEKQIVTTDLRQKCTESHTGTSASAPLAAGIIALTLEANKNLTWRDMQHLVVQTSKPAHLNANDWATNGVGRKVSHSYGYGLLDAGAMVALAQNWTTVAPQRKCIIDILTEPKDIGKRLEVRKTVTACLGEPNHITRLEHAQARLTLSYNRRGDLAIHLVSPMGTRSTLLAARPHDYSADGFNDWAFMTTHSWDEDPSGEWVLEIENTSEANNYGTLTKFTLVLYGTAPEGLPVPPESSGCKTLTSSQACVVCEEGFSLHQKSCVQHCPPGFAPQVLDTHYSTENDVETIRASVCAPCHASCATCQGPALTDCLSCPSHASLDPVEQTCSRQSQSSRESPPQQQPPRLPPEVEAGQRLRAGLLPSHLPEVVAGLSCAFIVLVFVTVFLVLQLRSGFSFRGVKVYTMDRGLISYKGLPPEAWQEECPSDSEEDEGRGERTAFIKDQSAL
smiles,measurement,setting,value
C[C@H](N)C(=O)N[C@@H](CCCN=C(N)N)C(=O)c1nc2ccccc2s1,Ki,[1],1.4 nM
C[C@H](NC(=O)[C@H](CCC(N)=O)NC(=O)[C@@H](N)CCCNC(=N)N)C(=O)N[C@@H](CCCNC(=N)N)C(O)c1nc2ccccc2s1 (mixture of isomers),Ki,[2],6120 nM
N=C(N)NCCC[C@H](NC(=O)CNC(=O)[C@@H](N)CCC(=O)O)C(=O)CCl (H-Glu-Gly-Arg-CH2Cl),inhibition,[3],Active
N=C(N)NCCC[C@H](N)C(=O)c1nc2ccccc2s1,Ki,[2],457 nM
C[C@H](NC(=O)[C@H](CCC(N)=O)NC(=O)[C@@H](N)CCCNC(=N)N)C(=O)N[C@@H](CCCNC(=N)N)C(=O)c1nc2ccccc2s1,inhibition,[4],Active
same,inhibition,Furin (Homo sapiens),inactive
same,Ki,[5],8.4 nM
same,Ki,[6],3.3 nM
same,Ki,Trypsin,0.97 nM
same,Ki,Prothrombin,637 nM
